Values quoted from earlier work as cited in US20050107425A1, “Treatment of attention defecit hyperactivity disorder” (Pfizer Inc, priority 2002, published 2005).

How the values were obtained:
[1] = molecular target: α7 nAChR (Homo sapiens, UniProt P36544)
[2] = clinical trials of Alzheimer's disease and attention-deficit disorders
[3] = molecular target: T1, 5HT3R (Homo sapiens, UniProt P46098)
T1 sequence (P46098 24-478): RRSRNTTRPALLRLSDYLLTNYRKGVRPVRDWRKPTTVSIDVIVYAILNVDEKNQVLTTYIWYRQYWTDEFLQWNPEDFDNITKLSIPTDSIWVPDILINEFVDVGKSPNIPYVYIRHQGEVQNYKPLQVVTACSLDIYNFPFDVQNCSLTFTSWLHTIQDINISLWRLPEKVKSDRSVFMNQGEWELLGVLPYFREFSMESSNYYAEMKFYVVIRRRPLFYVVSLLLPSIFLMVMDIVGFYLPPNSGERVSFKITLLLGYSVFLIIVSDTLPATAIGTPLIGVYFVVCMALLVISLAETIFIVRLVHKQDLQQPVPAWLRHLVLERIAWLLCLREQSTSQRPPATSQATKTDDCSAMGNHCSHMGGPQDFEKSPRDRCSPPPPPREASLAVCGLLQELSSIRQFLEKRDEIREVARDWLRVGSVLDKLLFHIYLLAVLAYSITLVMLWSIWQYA

Chain of α7 nAChR (P36544 23-502): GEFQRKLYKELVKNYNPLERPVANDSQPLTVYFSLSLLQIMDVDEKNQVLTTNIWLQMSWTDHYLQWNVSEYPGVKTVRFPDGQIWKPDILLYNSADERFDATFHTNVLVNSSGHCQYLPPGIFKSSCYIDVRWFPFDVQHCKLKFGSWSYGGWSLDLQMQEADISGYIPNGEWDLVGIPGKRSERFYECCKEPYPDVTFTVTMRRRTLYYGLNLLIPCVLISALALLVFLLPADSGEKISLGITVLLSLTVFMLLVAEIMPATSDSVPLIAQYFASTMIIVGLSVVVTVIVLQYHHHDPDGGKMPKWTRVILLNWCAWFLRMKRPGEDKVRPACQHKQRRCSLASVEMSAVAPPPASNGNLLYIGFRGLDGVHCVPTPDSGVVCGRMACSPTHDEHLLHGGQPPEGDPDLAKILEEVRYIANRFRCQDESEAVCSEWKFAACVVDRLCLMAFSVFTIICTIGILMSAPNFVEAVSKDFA

## Cc1nccn1CC1CCc2c(c3ccccc3n2C)C1=O (stereo not drawn) [Ondansetron]
[1]
  activity at the α7 nAChR: little activity

## Cc1cc([C@@H]2CCCN2C)on1 [ABT-418]
[2]
  cognition and attention in clinical trials: improves cognition and attention

## COc1ccc(/C=C2\CCCN=C2c2cccnc2)c(OC)c1 [GTS-21]
[3]
  activity at the 5HT3R: little activity
